Experimental findings from PubChem BioAssay (NCI) are described below.

Among the test systems are SK-MEL-2 melanoma; MCF7 breast; ACHN renal; 786-0 renal; PC-3 prostate; HCT-116 colon; SK-OV-3 ovarian; U251 CNS; OVCAR-8 ovarian; UACC-62 melanoma; MALME-3M melanoma; KM12 colon; RXF 393 renal; SF-539 CNS; MDA-MB-231 breast; NCI-H23 lung; HCC-2998 colon; K-562 leukemia; M14 melanoma; HS 578T breast.
Holding throughout (test): inhibition of tumour cell growth, NCI panel, 48 h

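Following 48 hours of exposure in 96-well plates, responses at five concentrations were used to interpolate endpoints linearly. At the TGI there is no net growth.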

As to `O=[N+]([O-])C(=C(Nc1ccccc1)Nc1ccccc1)/C(Cl)=C(\Cl)[N+](=O)[O-]`, the TGI was determined as 31.8 µM in the test with SK-MEL-2 melanoma; 20.3 µM with MCF7 breast; 7.12 µM in the test on ACHN renal; 15 µM in the test with 786-0 renal; 20.9 µM in the test on PC-3 prostate; 10.7 µM in the test with HCT-116 colon. Also, the TGI is over 100 µM in the test on SK-OV-3 ovarian; 18.1 µM in the test on U251 CNS; 2.77 µM in the test on OVCAR-8 ovarian; 18.7 µM in the test on UACC-62 melanoma; 14.2 µM with MALME-3M melanoma; 14.8 µM in the test with KM12 colon. Moreover, the TGI in the test with RXF 393 renal was 6.13 µM; in the test on SF-539 CNS, 4.15 µM; in the test with MDA-MB-231 breast, 10.8 µM; in the test on NCI-H23 lung it was 11.2 µM; in the test with HCC-2998 colon, 28.9 µM; in the test with K-562 leukemia it was over 100 µM. The figures for the TGI with M14 melanoma and in the test with HS 578T breast were 16.8 µM and 8.74 µM, respectively.

With `C[C@]12CC[C@@H]3c4ccc(O)cc4CC[C@H]3[C@@H]1CC[C@@H]2OP(=O)(O)O`, the TGI in the test on SK-MEL-2 melanoma, in the test on MCF7 breast, in the test with ACHN renal, with 786-0 renal, in the test on PC-3 prostate and in the test on HCT-116 colon was over 100 µM throughout. The TGI with SK-OV-3 ovarian, in the test on U251 CNS, in the test with OVCAR-8 ovarian, in the test with UACC-62 melanoma, in the test with MALME-3M melanoma and in the test with KM12 colon was over 100 µM throughout. For the same compound, the TGI in the test with RXF 393 renal, with SF-539 CNS, with MDA-MB-231 breast, with NCI-H23 lung, with HCC-2998 colon and in the test on K-562 leukemia was over 100 µM each time. Besides, the TGI in the test on M14 melanoma and with HS 578T breast was over 100 µM throughout.

`O=C(NNC(=S)Nc1ccccc1)c1cc(-c2ccccc2)nc2ccccc12`: the TGI in the test on SK-MEL-2 melanoma worked out at 31.9 µM; in the test on MCF7 breast it was 60.8 µM; in the test with ACHN renal it was 91.9 µM; with 786-0 renal it was 30 µM; with PC-3 prostate, 56.4 µM; with HCT-116 colon, 28.5 µM. For the same compound, the TGI in the test with SK-OV-3 ovarian is 43.2 µM; in the test on U251 CNS it was 30.8 µM; in the test on OVCAR-8 ovarian, 57.6 µM; in the test with UACC-62 melanoma it was 39.1 µM; with MALME-3M melanoma it was 82.4 µM; in the test with KM12 colon, over 100 µM. Further, the TGI is 46.4 µM in the test on RXF 393 renal; 38.7 µM in the test with SF-539 CNS; 52.5 µM in the test with MDA-MB-231 breast; 37.9 µM with NCI-H23 lung; 30.5 µM in the test on HCC-2998 colon; 63.2 µM with K-562 leukemia. Besides, the TGI turned out to be 30.5 µM in the test on M14 melanoma and 65.6 µM with HS 578T breast.

As to `c1cncc(C2(c3cc4ccccc4[nH]3)COCO2)c1` (stereo not given), the TGI in the test on SK-MEL-2 melanoma, in the test on MCF7 breast, with ACHN renal, in the test with 786-0 renal, in the test on PC-3 prostate and in the test on HCT-116 colon was over 100 µM each time. For the same compound, the TGI with SK-OV-3 ovarian, with U251 CNS, in the test with OVCAR-8 ovarian, in the test with UACC-62 melanoma, in the test with MALME-3M melanoma and with KM12 colon was over 100 µM in each case. Also, the TGI in the test with RXF 393 renal, in the test with SF-539 CNS, in the test with MDA-MB-231 breast, with NCI-H23 lung, with HCC-2998 colon and with K-562 leukemia was over 100 µM each time. Moreover, the TGI in the test with M14 melanoma and in the test on HS 578T breast was over 100 µM in each case.

`O=C(O)c1n[nH][nH]c1=S`: the TGI with SK-MEL-2 melanoma, with MCF7 breast, in the test on ACHN renal, in the test with 786-0 renal, in the test on PC-3 prostate and with HCT-116 colon was over 100 µM in each case. In addition, the TGI in the test with SK-OV-3 ovarian, with U251 CNS, in the test on OVCAR-8 ovarian, in the test with UACC-62 melanoma, in the test with MALME-3M melanoma and with KM12 colon was over 100 µM each time. In addition, the TGI in the test with RXF 393 renal, in the test with SF-539 CNS, with MDA-MB-231 breast, in the test with NCI-H23 lung, in the test with HCC-2998 colon and in the test on K-562 leukemia was over 100 µM throughout. The TGI in the test on M14 melanoma and with HS 578T breast was over 100 µM in each case.

Consider `CC[C@H](CCCC[C@H]1CC[C@@H]2CC(=O)C[C@H]12)OC`, for which the TGI with SK-MEL-2 melanoma, with MCF7 breast, in the test on ACHN renal, in the test on 786-0 renal, with PC-3 prostate and in the test on HCT-116 colon was over 100 µM in each case. The TGI in the test with SK-OV-3 ovarian, with U251 CNS, with OVCAR-8 ovarian, with UACC-62 melanoma, with MALME-3M melanoma and with KM12 colon was over 100 µM throughout. Moreover, the TGI in the test with RXF 393 renal was over 100 µM; in the test with SF-539 CNS, over 100 µM; in the test on MDA-MB-231 breast, over 100 µM; in the test with NCI-H23 lung, over 100 µM; with HCC-2998 colon it was over 100 µM; in the test with K-562 leukemia it was 55.2 µM. Further, the TGI with M14 melanoma and in the test on HS 578T breast was over 100 µM throughout.

`O=C1C(N2CCN(c3ccccn3)CC2)=C(Cl)C(=O)c2ncccc21`: the TGI with SK-MEL-2 melanoma is 4.67 µM; in the test with MCF7 breast, 3.64 µM; in the test on ACHN renal it was 4.91 µM; with 786-0 renal it was 3.21 µM; with PC-3 prostate it was over 10 µM; with HCT-116 colon, 3.13 µM. Moreover, the TGI in the test on SK-OV-3 ovarian was over 10 µM; in the test on U251 CNS, over 10 µM; in the test on OVCAR-8 ovarian, over 6.1 µM; in the test with UACC-62 melanoma it was over 6.76 µM; in the test on MALME-3M melanoma it was 2.75 µM; in the test on KM12 colon, over 5.95 µM. Besides, the TGI is 3.56 µM with RXF 393 renal; over 10 µM with SF-539 CNS; over 7.14 µM with MDA-MB-231 breast; 3.68 µM with NCI-H23 lung; over 6.52 µM with HCC-2998 colon; over 10 µM in the test on K-562 leukemia. Also, the figures for the TGI with M14 melanoma and with HS 578T breast were 3.82 µM and over 10 µM, respectively.
